From US20030176465A1, “Cyclic amino acid derivatives” (priority 2000, published 2003)
Where a name gives a salt, the structure may show the parent alone.

Tests used:
[1] = target: TF/VIIa (Homo sapiens, UniProt P08709); assay: Inhibition of TF/VIIa (IC50, headed 'Affinity to Receptors'); format: biochemical
Source text: The inhibition of factor VIIa by the compounds according to the invention and the measurement of the anticoagulant and antithrombotic activity can be determined by conventional in-vitro or in-vivo methods. A conventional method for the measurement of the inhibition of factor VIIa is described, for example, by H. F. Ronning et al. in Thrombosis Research 1996, 84, 73-81.

[2] = target: factor Xa, human (Homo sapiens, UniProt P00742); assay: Inhibition of factor Xa (IC50, headed 'Affinity to Receptors'); format: biochemical
Source text: The inhibition of factor Xa by the compounds according to the invention and the measurement of the anticoagulant and antithrombotic activity can be determined by conventional in-vitro or in-vivo methods. A suitable method is described, for example, by J. Hauptmann et al. in Thrombosis and Haemostasis 1990, 63, 220-223.
The inhibition of factor Xa can be measured, for example, by the method of T. Hara et al. in Thromb. Haemostas. 1994, 71, 314-319.

TF/VIIa, sequence (P08709 213-466 limits assumed): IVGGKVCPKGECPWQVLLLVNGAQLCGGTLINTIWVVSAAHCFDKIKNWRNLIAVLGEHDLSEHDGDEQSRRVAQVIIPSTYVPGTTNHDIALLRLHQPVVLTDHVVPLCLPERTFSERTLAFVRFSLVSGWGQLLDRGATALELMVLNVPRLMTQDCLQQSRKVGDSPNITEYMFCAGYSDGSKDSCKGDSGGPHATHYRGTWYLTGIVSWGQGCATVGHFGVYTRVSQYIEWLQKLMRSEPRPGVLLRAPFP
TF/VIIa, sequence (P08709 61-212 limits assumed): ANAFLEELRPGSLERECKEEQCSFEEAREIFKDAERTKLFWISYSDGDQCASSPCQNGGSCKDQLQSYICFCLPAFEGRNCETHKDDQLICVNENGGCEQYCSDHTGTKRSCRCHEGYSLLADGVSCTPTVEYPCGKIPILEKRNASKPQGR
TF/VIIa, sequence (P13726 33-295 partner): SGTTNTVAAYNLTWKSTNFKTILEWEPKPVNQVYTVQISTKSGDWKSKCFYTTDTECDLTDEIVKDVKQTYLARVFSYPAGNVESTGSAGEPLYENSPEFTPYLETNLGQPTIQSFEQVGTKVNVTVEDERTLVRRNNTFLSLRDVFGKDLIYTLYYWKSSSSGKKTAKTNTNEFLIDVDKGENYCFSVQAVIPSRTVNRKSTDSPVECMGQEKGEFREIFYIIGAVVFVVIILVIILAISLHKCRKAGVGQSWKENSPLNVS
factor Xa, human, sequence (P00742 235-488 limits assumed): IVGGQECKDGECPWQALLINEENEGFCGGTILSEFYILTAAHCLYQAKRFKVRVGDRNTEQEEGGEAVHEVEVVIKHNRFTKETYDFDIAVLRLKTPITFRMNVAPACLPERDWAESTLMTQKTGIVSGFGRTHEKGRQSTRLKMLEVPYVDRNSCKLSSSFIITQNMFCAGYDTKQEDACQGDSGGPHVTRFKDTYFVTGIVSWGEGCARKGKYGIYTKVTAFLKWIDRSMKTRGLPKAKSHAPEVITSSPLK
factor Xa, human, sequence (P00742 41-179 limits assumed): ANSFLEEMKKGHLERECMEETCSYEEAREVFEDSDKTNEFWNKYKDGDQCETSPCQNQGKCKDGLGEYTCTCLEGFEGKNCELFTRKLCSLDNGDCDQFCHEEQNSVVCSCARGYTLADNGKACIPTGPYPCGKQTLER

Row | melting point | IC50 [1] | IC50 [2] | Compound
1 | 180 °C (dec.) |  |  | Nc1nc(F)c(F)c(N2CCC[C@H]2C(=O)Nc2ccc(-c3ccccc3S(N)(=O)=O)cc2)c1F (as salt: trifluoroacetate) [AF, N-(2′-sulfamoylbiphenyl-4-yl)-(2S)-1-(2-amino-3,5,6-trifluoropyridin-4-yl)pyrrolidine-2-carboxamide, trifluoroacetate]
2 | 98 °C (dec.) | 440 nM | 340 nM | NC(=NO)c1cccc(N2CCCCC2C(=O)Nc2ccc(-c3ccccc3S(N)(=O)=O)cc2)c1 [DA, N-(2′-sulfamoylbiphenyl-4-yl)-(2R,S)-1-[3-(N-hydroxyamidino)phenyl]piperidine-2-carboxamide]
